In paper PMC9090415, “Discovery of small molecule inhibitors of Plasmodium falciparum apicoplast DNA polymerase” (Journal of Enzyme Inhibition and Medicinal Chemistry, 2022):

Target: P. falciparum apicoplast DNA polymerase (Pf-apPOL) (Plasmodium falciparum, UniProt Q8ILY1)
Assay: Fluorescence-based high-throughput DNA polymerase assay (molecular beacon), primary screen and dose-response
Assay type: biochemical
Details: for DNA Pol: 90 min, 10 µM
Procedure: The HT assay employs a molecular beacon, a stem-loop DNA template with a Cy3 dye and the Black Hole Quencher on the 3′ and 5′ ends of the DNA, respectively. Pf-apPOL concentration is based on a calculated absorptivity of ε280 = 56750 M^−1 cm^−1. Reactions were carried out at 25 °C, using Corning 3575 […] (well-volume, 20 µL). Assays testing for compound inhibition composed of reaction buffer (pH 7.9 in 50 mM potassium acetate, 20 mM Tris-acetate and 10 mM magnesium acetate), Pf-apPOL (20 nM), DNA substrate (20 nM), dNTPs (6 µM), and compound (10 µM in DMSO). The DNA and nucleotide substrates (dNTPs) were at concentrations of 20 nM and 6 µM, respectively, in the assay. Pf-apPOL was incubated in the reaction buffer with dNTPs and the compound of interest (10 µM, in the assay) at 25 °C for 10 min. The DNA substrate was then added and the reaction was allowed to proceed for 90 min at 25 °C.
Each assay plate contained 16 negative controls (no Pf-apPOL, DMSO present) and 16 positive controls (Pf-apPOL present, no DMSO). The fluorescence of each well was determined using a BioTek Synergy Neo fluorescence plate reader using excitation and emission wavelengths of 555 and 570 nm, respectively.
In the above, Min is the average of fluorescence emission of the negative controls (substrate only), Max the average fluorescence emission from the positive controls (enzyme + substrate), and Test the emission from the assays in the presence of compounds (enzyme + compound + substrates). […] […] The IC50 of each compound was determined using Equation (2): (2) IC50= Vmax/(1+ (I/IC50)^n)
In the above, n measures cooperativity, with n > 1 indicating synergistic binding of more than a single molecule of the compound.
To identify apPOL inhibitors we utilised our previously developed high-throughput DNA polymerase assay. The HT assay is based on a molecular beacon DNA template that forms a stem-loop with a Cy3 dye and the Black Hole Quencher on the 3′ and 5′ ends of the DNA, respectively. DNA polymerase activity extends an annealed primer through the stem region, displacing the fluorophore from the quencher, thereby increasing its fluorescence (Figure 1(A)). The assay accurately recapitulates the kinetic behaviour of apPOL, as measured through more conventional low-throughput gel-based assays. The Z′ factor for the assay described here was 0.9 across all plates (data not shown).
Figure 1. High-throughput screening. (A) The fluorescent-based DNA polymerase assay used to screen the compound libraries. The DNA template strand is a hairpin loop with a primer annealed to the loop. The 3’ end of the primer is 11 bases away from the 6 bp duplex. Strand displacement activity of the DNA polymerase separates the Cy3 dye from the Black hole quencher leading to an increase in fluorescent signal. (B) The high-throughput assay workflow. The DNA polymerase is incubated with […] compound for 10 min prior to addition of the hairpin substrate. The reaction is quenched at 3 different time points and the fluorescent signal is measured and % inhibition is determined using the provided equation.

Sequence of P. falciparum apicoplast DNA polymerase (Pf-apPOL) (Q8ILY1 entry or part of it): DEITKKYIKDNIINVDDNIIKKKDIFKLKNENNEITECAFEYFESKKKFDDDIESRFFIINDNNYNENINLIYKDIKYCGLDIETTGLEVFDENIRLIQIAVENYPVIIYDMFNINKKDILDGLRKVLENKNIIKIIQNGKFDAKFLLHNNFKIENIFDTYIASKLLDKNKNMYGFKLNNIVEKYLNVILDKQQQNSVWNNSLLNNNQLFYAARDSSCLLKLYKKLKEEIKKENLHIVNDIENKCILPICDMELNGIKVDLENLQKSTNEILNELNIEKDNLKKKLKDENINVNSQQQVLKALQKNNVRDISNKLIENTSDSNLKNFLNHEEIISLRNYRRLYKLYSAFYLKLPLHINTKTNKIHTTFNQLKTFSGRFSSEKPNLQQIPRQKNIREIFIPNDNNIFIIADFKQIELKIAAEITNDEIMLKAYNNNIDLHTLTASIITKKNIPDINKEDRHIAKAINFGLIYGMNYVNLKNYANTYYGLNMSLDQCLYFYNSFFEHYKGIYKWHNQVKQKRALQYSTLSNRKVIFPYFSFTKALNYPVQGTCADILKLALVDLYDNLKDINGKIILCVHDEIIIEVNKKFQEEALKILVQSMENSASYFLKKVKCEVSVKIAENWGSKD

## COC(=O)c1sc(-c2ccc(C(C)(C)C)cc2)cc1NC(=O)CCC(=O)O [Molecule 87, COC(=O)c1sc(cc1NC(=O)CCC(=O)O)c1ccc(cc1)C(C)(C)C]
'DNA Pol' of the 186 hits list (screen value)
  DNA Pol: 96
DRC-1, conc 2.5
  % inhibition Apo pol 10': 19.7971%
  % inhibition apPOL 180': 10.0944%
DRC-1, conc 5
  % inhibition Apo pol 10': 30.0237%
  % inhibition apPOL 180': 11.9548%
DRC-1, conc 10
  % inhibition Apo pol 10': 55.209%
  % inhibition apPOL 180': 36.7594%
DRC-1, conc 20
  % inhibition Apo pol 10': 85.0828%
  % inhibition apPOL 180': 75.8676%
DRC-1, conc 40
  % inhibition Apo pol 10': 94.7696%
  % inhibition apPOL 180': 89.861%
DRC-1, conc 80
  % inhibition Apo pol 10': 96.2943%
  % inhibition apPOL 180': 95.0797%
DRC-1, 90', conc 2.5
  % inhibition Apol 90': 13.7781%
DRC-1, 90', conc 5
  % inhibition Apol 90': 20.5036%
DRC-1, 90', conc 10
  % inhibition Apol 90': 48.04%
DRC-1, 90', conc 20
  % inhibition Apol 90': 81.7697%
DRC-1, 90', conc 40
  % inhibition Apol 90': 91.7617%
DRC-1, 90', conc 80
  % inhibition Apol 90': 95.9877%
DRC-2, conc 2.5
  % inhibition Apo pol 5': 12%
  % inhibition Apol 40': 11%
  % inhibition apPOL 180': 6%
DRC-2, conc 5
  % inhibition Apo pol 5': 9%
  % inhibition Apol 40': 9%
  % inhibition apPOL 180': 4%
DRC-2, conc 10
  % inhibition Apo pol 5': 35%
  % inhibition Apol 40': 40%
  % inhibition apPOL 180': 32%
DRC-2, conc 20
  % inhibition Apo pol 5': 50%
  % inhibition Apol 40': 61%
  % inhibition apPOL 180': 57%
DRC-2, conc 40
  % inhibition Apo pol 5': 60%
  % inhibition Apol 40': 72%
  % inhibition apPOL 180': 72%
DRC-2, conc 80
  % inhibition Apo pol 5': 59%
  % inhibition Apol 40': 72%
  % inhibition apPOL 180': 73%
DRC-2, concentration 5
  % inhibition Apo pol 5': 9%
  % inhibition Apol 40': 9%
DRC-2, concentration 40
  % inhibition Apol 40': 72%
  % inhibition apPOL 180': 72%
DRC-2, concentration 80
  % inhibition Apol 40': 72%
DRC-2, 90', conc 2.5
  % inhibition ApPOL 90': 9%
DRC-2, 90', conc 5
  % inhibition ApPOL 90': 7%
DRC-2, 90', conc 10
  % inhibition ApPOL 90': 38%
DRC-2, 90', conc 20
  % inhibition ApPOL 90': 62%
DRC-2, 90', conc 40
  % inhibition ApPOL 90': 74%
DRC-2, 90', conc 80
  % inhibition ApPOL 90': 75%
DRC-2, 90', concentration 2.5
  % inhibition ApPOL 90': 9%
Primary screen value, "DNA Pol"
  DNA Pol: 96

## CC(C)(C)c1cc(C(=O)C(C#N)=NNc2cccc(Cl)c2)no1 [Molecule 98, N#CC(=NNc1cccc(c1)Cl)C(=O)c1noc(c1)C(C)(C)C]
'DNA Pol' of the 186 hits list (primary screen result), unit not given
  DNA Pol: 96
DRC-1, concentration 2.5
  % inhibition Apo pol 10': 10.7073%
  % inhibition apPOL 180': 9.726%
DRC-1, concentration 5
  % inhibition Apo pol 10': 31.7551%
  % inhibition apPOL 180': 23.8574%
DRC-1, concentration 10
  % inhibition Apo pol 10': 51.803%
  % inhibition apPOL 180': 46.8466%
DRC-1, concentration 20
  % inhibition Apo pol 10': 87.204%
  % inhibition apPOL 180': 85.1856%
DRC-1, concentration 40
  % inhibition Apo pol 10': 82.704%
  % inhibition apPOL 180': 79.4059%
DRC-1, concentration 80
  % inhibition Apo pol 10': 96.4114%
  % inhibition apPOL 180': 96.5379%
DRC-1, 90', concentration 2.5
  % inhibition Apol 90': 12.918%
DRC-1, 90', concentration 5
  % inhibition Apol 90': 31.5705%
DRC-1, 90', concentration 10
  % inhibition Apol 90': 54.1185%
DRC-1, 90', concentration 20
  % inhibition Apol 90': 87.0322%
DRC-1, 90', concentration 40
  % inhibition Apol 90': 80.829%
DRC-1, 90', concentration 80
  % inhibition Apol 90': 96.7924%
DRC-2, 90', concentration 20 (unit not given)
  % inhibition ApPOL 90': 61%
DRC-2, concentration 2.5
  % inhibition Apo pol 5': 8%
  % inhibition Apol 40': 10%
  % inhibition apPOL 180': 2.49%
DRC-2, concentration 5
  % inhibition Apo pol 5': 18%
  % inhibition Apol 40': 24%
  % inhibition apPOL 180': 14%
DRC-2, concentration 10
  % inhibition Apo pol 5': 30%
  % inhibition Apol 40': 40%
  % inhibition apPOL 180': 31%
DRC-2, concentration 20
  % inhibition Apo pol 5': 47%
  % inhibition Apol 40': 60%
  % inhibition apPOL 180': 57%
DRC-2, concentration 40
  % inhibition Apo pol 5': 46%
  % inhibition Apol 40': 56%
  % inhibition apPOL 180': 55%
DRC-2, concentration 80
  % inhibition Apo pol 5': 61%
  % inhibition Apol 40': 76%
  % inhibition apPOL 180': 81%
DRC-2, concentration 80 (unit not given)
  % inhibition Apo pol 5': 61%
DRC-2, 90', concentration 2.5
  % inhibition ApPOL 90': 8.47%
DRC-2, 90', concentration 5
  % inhibition ApPOL 90': 21%
DRC-2, 90', concentration 10
  % inhibition ApPOL 90': 39%
DRC-2, 90', concentration 20
  % inhibition ApPOL 90': 61%
DRC-2, 90', concentration 40
  % inhibition ApPOL 90': 58%
DRC-2, 90', concentration 80
  % inhibition ApPOL 90': 79%
Primary screen value of the library well, unit not given
  DNA Pol: 96
